From patent US20030194750A1, “Methods for treatment of diseases where GSK 3-beta is desired, and methods to identify compounds usefule for that” (priority 2002, published 2003)
Read-outs that look alike come from different tables or passages of the source. One block for each compound: values may come before it.

How the values were obtained:
[1] = molecular target: T1, GST-cGB-PDE5 fusion protein (Homo sapiens, UniProt O76074); assay: cGMP binding assay with GST-cGB-PDE5 fusion protein; conditions: for competition with cGMP binding at high concentration: 100 μM compound vs cGMP 2 μM
T1 construct: made in house; host or cells: E. coli BL21 (DE3)
T1 sequence (O76074 46-539 limits assumed): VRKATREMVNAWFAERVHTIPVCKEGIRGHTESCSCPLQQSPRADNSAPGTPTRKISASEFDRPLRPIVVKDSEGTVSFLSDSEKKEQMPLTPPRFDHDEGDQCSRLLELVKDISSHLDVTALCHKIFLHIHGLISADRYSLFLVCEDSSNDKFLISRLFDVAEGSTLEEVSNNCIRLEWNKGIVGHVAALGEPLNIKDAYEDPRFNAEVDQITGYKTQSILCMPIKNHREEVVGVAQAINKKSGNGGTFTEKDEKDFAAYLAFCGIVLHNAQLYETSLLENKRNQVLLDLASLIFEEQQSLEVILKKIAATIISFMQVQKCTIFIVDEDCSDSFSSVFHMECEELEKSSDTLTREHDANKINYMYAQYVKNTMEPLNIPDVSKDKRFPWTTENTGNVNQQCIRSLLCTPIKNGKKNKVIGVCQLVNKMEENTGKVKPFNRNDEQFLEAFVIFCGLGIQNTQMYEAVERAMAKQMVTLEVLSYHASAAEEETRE
Procedure: 5′-3′, Inc. kits for total RNA followed by oligo (dT) column purification of mRNA are used with HT-29 cells. […] It is then cloned into pGEX-5X-3 glutathione-S-transferase (GST) fusion vector (Pharmacia Biotech) with tac promoter, and EcoRI and XhoI cut sites. The fusion vector is then transfected into E. Coli BL21 (DE3) bacteria (Invitrogen). The transfected BL21 bacteria is grown to log phase, and then IPTG is added as an inducer. The induction is carried at 20° C. for 24 hrs. The bacteria are harvested and lysed. The soluble cell lysate is incubated with GSH conjugated Sepharose 4B (GSH-Sepharose 4B). The GST-cGB-PDE5 fusion protein can bind to the GSH-Sepharose beads, and the other proteins are washed off from beads with excessive cold PBS.
Then, the mixture is transferred to Brandel MB-24 cell harvester with GF/B as the filter membrane followed by 2 washes with 10 mL of cold 5 mM potassium buffer( pH 6.8). The membranes are then cut out and transferred to scintillation vials followed by the addition of 1 mL of H2O and 6 mL of Ready Safe™ liquid scintillation cocktail to each vial. The vials are counted on a Beckman LS 6500 scintillation counter.
The quenching by filter membrane or other debris are also calibrated.

GSK3β = assay: Western blot of GSK3β-phospho-ser9 in SW480 cells; assay type: cell-based, human; conditions: various concentrations, 48 hours, vs 0 concentration
Procedure: (§1) 50 μg protein/lane were analyzed by Western blot analysis using specific anti-PKG1β and anti-GSK3β-phospho-ser9 antibodies.

PKG1β = assay: Western blot of PKG1β in SW480 cells; assay type: cell-based, human; conditions: various concentrations, 48 hours
Procedure: as §1

PKG = PKG activity assay on lysates of drug-treated SW480 colon cancer cells (32P phosphorylation of PDE5/GST substrate); assay type: cell-based, human; conditions: SW480 cells treated 48 hrs; exisulind 200, 400, 600 μM, E4021 0.1, 1, 10 μM; assay with and without added cGMP
Procedure: A compound that inhibits all these types of PDE is desirable, accordingly. Below, we provide examples of such PDE-inhibiting compounds.
SW 480 is known to contain the APC mutation. About 5 million SW480 cells in RPMI 5% serum are added to each of 8 dishes:
2-10 cm dishes - - - 30 μL DMSO vehicle control (without drug),
3-10 cm dishes - - - 200 μM, 400 μM, 600 μM exisulind in DMSO, and
The dishes are incubated for 48 hrs at 37° C. in 5% CO2 incubator.
The liquid media are aspirated from the dishes (the cells will attach themselves to the dishes). The attached cells are washed in each dish with cold PBS, and 200 μL cell lysis buffer (i.e., 50 mM Tris-HCl, 1% NP-40, 150 mM NaCl, 1 mM EDTA, 1 mM Na3VO4, 1 mM NaF, 500 μM IBMX with proteinase inhibitors) is added to each dish. Immediately after the cell lysis buffer is added, the lysed cells are collected by scraping the cells off each dish. The cell lysate from each dish is transferred to a microfuge tube, and the microfuge tubes are incubated at 4° C. for 15 minutes while gently agitating the microfuge tubes to allow the cells to lyse completely. […]
For each control or drug cell lysate sample to be evaluated, the reaction is started by adding phosphorylation buffer containing 10 μCi ^32P-γ-ATP solution (200 μM ATP, 4.5 mM MgCl; 5 mM KH2PO4; 5 mM K2HPO4;) to each mixture. […]

native bovine PDE5 = native bovine PDE5 (Bos taurus, UniProt Q28156); conditions: read-out: Kd of cGMP binding; cited from earlier work

SMILES: COc1cc(/C=C2/C(C)=C(CC(=O)NCc3ccccc3)c3cc(F)ccc32)cc(OC)c1OC [Compound A, 1H-indene-3-acetamide, 5-fluoro-2-methyl-N-(phenylmethyl)-1-[(3,4,5-trimethoxyphenyl)methylene]-, (1Z)]
GSK3β inactivation by Ser9 phosphorylation (GSK3β): inactivated in vivo by phosphorylation of its Ser9
PKG1 induction (PKG1β): PKG1 induction in a dose-dependent manner

SMILES: Nc1ncnc2c1ncn2[C@@H]1O[C@@H]2COP(=O)(O)O[C@H]2[C@H]1O [Cyclic AMP]
competition with cGMP for the cGMP binding sites [1]: did not compete with cGMP in binding

SMILES: O=C([O-])C1CCN(c2nc(NCc3ccc4c(c3)OCO4)c3cc(Cl)ccc3n2)CC1.[Na+] [Example E4021]
PKG activity relative to control (PKG): do not exhibit PKG activation relative to control
competition with cGMP for the cGMP binding sites ([1]; 3H-cGMP 2 μM, 22° C., 1 hour): None of the PDE5 inhibitors showed any competition with cGMP in binding

SMILES: CSc1ccc(/C=C2/C(C)=C(CC(=O)O)c3cc(F)ccc32)cc1 [Sulindac sulfide]
competition with cGMP for the cGMP binding sites ([1]; 3H-cGMP 2 μM, 22° C., 1 hour): None of the PDE5 inhibitors showed any competition with cGMP in binding

SMILES: Nc1nc2c(ncn2[C@@H]2O[C@@H]3COP(=O)(O)O[C@H]3[C@H]2O)c(=O)[nH]1 [cGMP, cyclic 3′,5′-guanosine monophosphate]
Kd (native bovine PDE5): 1.3 µM
binding of cGMP to the fusion protein [1]: specifically bound to GST-cGB-PDE5 protein
Kd ([1]; read-out: Kd of cGMP binding, two cGMP binding sites): 1.6 ± 0.2 µM

SMILES: CCCOc1ccccc1-c1nc2nn[nH]c2c(=O)[nH]1 [zaprinast]
competition with cGMP for the cGMP binding sites ([1]; 3H-cGMP 2 μM, 22° C., 1 hour): None of the PDE5 inhibitors showed any competition with cGMP in binding

Further lines, results first:

competition with cGMP for the cGMP binding sites ([1]; 3H-cGMP 2 μM, 22° C., 1 hour): did not compete with cGMP in binding
SMILES: CCCCOC1C2OP(=O)(O)OCC2OC1n1cnc2c(N)ncnc21 (stereo not shown) [2′-O-butyl-cAMP]

competition with cGMP for the cGMP binding sites ([1]; 3H-cGMP 2 μM, 22° C., 1 hour): did not compete with cGMP in binding
SMILES: CCCCOC1C2OP(=O)(O)OCC2OC1n1cnc2c(=O)[nH]c(N)nc21 (stereo not shown) [2′-O-butyl-cGMP]

competition with cGMP binding at high concentration [1]: can partially compete with cGMP
SMILES: O=c1[nH]cnc2c1ncn2[C@@H]1O[C@@H]2COP(=O)(O)O[C@H]2[C@H]1O [Cyclic IMP]

competition with cGMP binding at high concentration [1]: can partially compete with cGMP
SMILES: Nc1nc2c(nc(Br)n2[C@@H]2O[C@@H]3COP(=O)(O)O[C@H]3[C@H]2O)c(=O)[nH]1 [Example 8-bromo-cGMP, 8-bromo-cGMP]

competition with cGMP for the cGMP binding sites ([1]; 3H-cGMP 2 μM, 22° C., 1 hour): did not compete with cGMP in binding
SMILES: Nc1ccn([C@@H]2O[C@@H]3COP(=O)(O)O[C@H]3[C@H]2O)c(=O)n1 [cCMP, cyclic CMP]

competition with cGMP for the cGMP binding sites ([1]; 3H-cGMP 2 μM, 22° C., 1 hour): did not compete with cGMP in binding
SMILES: O=c1ccn([C@@H]2O[C@@H]3COP(=O)(O)O[C@H]3[C@H]2O)c(=O)[nH]1 [cUMP, cyclic UMP]
